Measurements reported in publication PMC3524758, “Development and evaluation of a novel radioiodinated vesamicol analog as a sigma receptor imaging agent” (EJNMMI Research, 2012).
pKi: −log10 of the molar value.

Legend:
[1] = tested on: DU-145 prostate cancer cell lines; assay: Cellular uptake and washout experiments in vitro; type: cell-based; conditions: DU-145 cells
Description: Radiotracer uptake studies were performed in monolayer cultures of DU-145 prostate cancer cell lines, which were obtained from ATCC (Manassas, VA, USA). Cells were grown in cell culture dishes in RPMI 1640 medium with phenol red, 10% heat-inactivated fetal bovine serum (FBS), 100-μg/mL glutamine, 100-units/mL penicillin, and 100-μg/mL streptomycin at 37°C in a humidified atmosphere of 95% air and 5% carbon dioxide. Cells were plated on 6-well tissue culture plates (4 × 10^5 cells/well) for 24 h before the study and incubated at 37°C in the culture medium without FBS containing (+)-^125I]IV-OH or (+)-^125I]pIV (3.7 kBq/well), which was prepared by a method of a previous study for different time intervals (15, 30, 60, and 120 min). For the washout experiment, tumor cells exposed to a medium containing (+)-^125I]IV-OH or (+)-^125I]pIV for 60 min were washed with phosphate buffered saline (PBS) and incubated in fresh (nonradioactive) medium without FBS at 37°C for 15, 30, and 60 min. […] After incubation, cells were washed twice with ice-cold PBS and resolved by adding 0.5 mL of 1-M NaOH. The solutions were then collected and the radioactivity was determined with an auto well gamma counter (ARC-380; Aloka) and corrected for background radiation. The radioactivity of each sample was normalized for the protein level, which was determined using a Protein Assay Bicinchoninate Kit (Nacalai Tesque).

[2] = design: method as in PMID 19659515; conditions: cited from earlier work
[3] = tested on: sigma receptors; assay: Blocking studies with excess sigma ligand in DU-145 tumor-bearing mice; type: in vivo; conditions: 10 μmol/kg i.v. co-injection, 1-h post-injection
Description: At 1-h post-injection, the mice were killed, and biodistribution experiments were conducted as described above.

[4] = target: T1, sigma-1 receptor (Rattus norvegicus, UniProt Q9R0C9); design: method as in PMID 15670917; conditions: cited from earlier work
T1 construct: from tissue; host or cells: rat brain without cerebellum (male Sprague-Dawley rats)
T1 sequence (Q9R0C9 whole entry): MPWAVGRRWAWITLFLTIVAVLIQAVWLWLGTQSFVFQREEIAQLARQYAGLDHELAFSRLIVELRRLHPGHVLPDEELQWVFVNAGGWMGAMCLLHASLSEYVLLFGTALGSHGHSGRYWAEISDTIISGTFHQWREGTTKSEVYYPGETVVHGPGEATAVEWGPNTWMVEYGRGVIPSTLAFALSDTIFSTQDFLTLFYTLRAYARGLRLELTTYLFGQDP

effect of co-injected ligand on brain to blood uptake ratio of (+)-[^125I]IV-OH [3] | effect of co-injected ligand on pancreas to blood uptake ratio of (+)-[^125I]IV-OH [3] | effect of co-injected ligand on tumor to blood uptake ratio of (+)-[^125I]IV-OH [3] | SMILES | time at which uptake was saturated [1] [min] | accumulation in the presence of haloperidol ([1]; haloperidol 10 μM in culture medium) | intracellular radioactivity released into the supernatant ([1]; within 60 min after medium replacement, specific uptake) [%] | log P [2] | pKi [4]
– | – | – | O[C@H]1CCCC[C@@H]1N1CCC(c2ccc([125I])cc2)CC1 [(+)-[^125I]pIV, reference compound] | 30 | remarkably lessened | 44 | 2.08 | –
significant decrease | significant decrease | significant decrease | O[C@@H]1CCCCC1N1CCC(c2ccc(I)cc2)CC1 (single isomer, unassigned; (+)) [(+)-pIV, (+)-2-[4-(4-iodophenyl)piperidino]cyclohexanol] | – | – | – | – | 8.89
